{"source": "patent US20240166591A1", "about": "“Pharmaceutical Products Based on Cannabinoid Acid Esters” (priority 2021, published 2024)", "key": {"[1]": {"test_system": "SK-BR-3 cancer cell line (human breast cancer cell line)", "test": "MTT cytotoxicity assay, SK-BR-3 cancer cell line", "assay_type": "cell-based", "details": "for EC50: cancer cell line SKBR3", "text": "(§1) The cytotoxic activity of CBDA methyl esters, CBCA CBGA and THCA was studied by the in vitro MTT colorimetric process (Mosmann, T. et al. J. Immunol. Methods. 1983; 65: 55-63). This method, which is widely used to measure cellular metabolic activity as an indicator of cell viability, division and cytotoxicity, is based on the reduction of a yellow salt of tetrazole ((3-(4,5-dimethylthiazol-2-yl)-2). 5-diphenyltetrazolium bromide or MTT) in violet formazan crystals from metabolically active cells.\n(§2) Briefly for this cytotoxicity test, the SK-BR-3 cancer cell line (human breast cancer cell line), the MCF-7 cancer cell line (human breast cancer cell line), and the A2058 cancer cell line […]) and the cancer line SKMEL28 (melanoma line). All cell lines were tested at 20% v/v O2, in the presence of 10% FBS after 48 h or 72 h of incubation."}, "cyclooxygenase-2": {"test_system": "cyclooxygenase-2", "details": "MDA-MB-231; cited from earlier work"}, "[2]": {"test_system": "breast cancer cells MDA-MB-231", "details": "cited from earlier work"}, "normal MCF10A cells": {"test_system": "normal MCF10A cells", "test": "Cytotoxic activity in normal MCF10A cells compared to SK-BR-3", "assay_type": "cell-based", "details": "FIG. 3", "text": "FIG. 3. Comparison of the cytotoxic activity of CBDA methyl ester in SK-BR-3 cancer cells compared to the cytotoxic activity in normal MCF10A cells.\nas §1"}, "[3]": {"test_system": "A2058 cancer cell line (melanoma)", "test": "MTT cytotoxicity assay, A2058 cancer cell line", "assay_type": "cell-based", "text": "as §1, §2"}, "[4]": {"test_system": "MCF-7 cancer cell line (human breast cancer cell line)", "test": "MTT cytotoxicity assay, MCF-7 cancer cell line", "assay_type": "cell-based", "details": "MCF7 cell line", "text": "as §1, §2"}, "SKMEL28 (melanoma line)": {"test_system": "SKMEL28 (melanoma line)", "test": "MTT cytotoxicity assay, SKMEL28 cancer line", "assay_type": "cell-based", "text": "as §1, §2"}, "[5]": {"details": "MTT, incubation time not stated (48 h or 72 h)"}}, "data": [{"smiles": "CCCCCc1cc2c(c(O)c1C(=O)OC)C=CC(C)(CCC=C(C)C)O2", "note": "(stereo not shown) [CBCA-Me, CBCA methyl ester]", "values": [{"measurement": "EC50", "setting": "[1]; [5]", "result": 35, "unit": "µM"}]}, {"smiles": "C=C(C)[C@@H]1CCC(C)=C[C@H]1c1c(O)cc(CCCCC)c(C(=O)O)c1O", "note": "[CBDA, Cannabidiolic acid]", "values": [{"measurement": "expression of cyclooxygenase-2", "setting": "cyclooxygenase-2", "result": "enhance the expression of cyclooxygenase-2"}, {"measurement": "cell migration", "setting": "[2]", "result": "inhibit cell migration"}]}, {"smiles": "C=C(C)[C@@H]1CCC(C)=C[C@H]1c1c(O)cc(CCCCC)c(C(=O)OC)c1O", "note": "[CBDA-Me, CBDA methyl ester]", "values": [{"measurement": "effect on SK-BR-3 cancer cells compared with normal MCF10A cells", "setting": "normal MCF10A cells", "result": "much stronger effect on SK-BR-3 cancer cells than normal MCF10A cells"}, {"measurement": "EC50", "setting": "[1]; [5]", "result": 30.6, "unit": "µM"}]}, {"smiles": "CCCCCc1cc(O)c(C/C=C(\\C)CCC=C(C)C)c(O)c1", "note": "[CBG, cannabigerol, reference compound]", "values": [{"measurement": "EC50", "setting": "[1]; Homo sapiens, SK-BR-3, 72 h", "result": 38.8, "unit": "µM"}]}, {"smiles": "CCCCCc1cc(O)c(C/C=C(\\C)CCC=C(C)C)c(O)c1C(=O)OC", "note": "[CBGA-Me, CBGA methyl ester]", "values": [{"measurement": "EC50", "setting": "[3]", "result": 17, "unit": "µM"}, {"measurement": "EC50", "setting": "[4]", "result": 18, "unit": "µM"}, {"measurement": "EC50", "setting": "SKMEL28 (melanoma line)", "result": 17, "unit": "µM"}, {"measurement": "relative cytotoxic activity among the esters", "setting": "[1]; SKBR3, 48 h and 72 h (FIGS. 1 and 2)", "result": "greatest activity"}, {"measurement": "activity compared with the corresponding decarboxylated product", "setting": "[1]; SKBR3, 72 h for CBGA methyl ester vs CBG", "result": "almost twice as active as CBG"}, {"measurement": "EC50", "setting": "[1]; [5]", "result": 20.2, "unit": "µM"}]}, {"smiles": "CCCCCc1cc2c(c(O)c1C(=O)OC)C1C=C(C)CCC1C(C)(C)O2", "note": "(stereo not shown) [THCA-Me, THCA methyl ester]", "values": [{"measurement": "EC50", "setting": "[1]; [5]", "result": 36, "unit": "µM"}]}]}
